Counter-ions that a name gives are not always drawn.
Legend:
CDK12/CycK = CDK12/CycK (Homo sapiens, UniProt Q9NYV4); experiment: Inhibition of CDK12 (ADP-Glo kinase assay); assay type: biochemical; conditions: 60 nM CDK12/CycK, 30 minutes pre-incubation, 1 μM ATP, 0.5 μM RBER-IRStide substrate, 1 h at 25° C., read-out: CDK12/cyclin K IC50
Summary of the method: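 Compounds pre-incubated 30 min with 60 nM CDK12/CycK in HEPES pH 7.5 buffer with Mg2+/Mn2+, 1% DMSO final. Reaction started with 1 μM ATP and 0.5 μM RBER-IRStide, run 1 h at 25 °C; ADP-Glo luminescence, no-kinase blank subtracted, IC50 from sigmoidal fit of % inhibition.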

DM1 fibroblasts = experiment: Nuclear foci assay; assay type: cell-based; conditions: Fibroblast; DM1 fibroblasts treated for 24 hours, 11 point dilution 20 μM-19 nM, in situ hybridisation with cy3 labelled CAG10 probe
Description: DM1 fibroblasts were treated with compounds in an 11 point dilution series from 20 μM-19 nM for 24 hours. Following treatment, fluorescent in situ hybridisation was performed with a cy3 labelled CAG10 probe, to visualize nuclear foci and cells were analysed on a Molecular Devices plate reader with customised MetaExpress software (Ketley, A. et al. (2014). Hum Mol Genet, 23: 1551-1562). Compounds that reduced nuclear foci in a concentration dependent manner, compared to DMSO treated cells were identified.

Sequence of CDK12/CycK (Q9NYV4 whole entry): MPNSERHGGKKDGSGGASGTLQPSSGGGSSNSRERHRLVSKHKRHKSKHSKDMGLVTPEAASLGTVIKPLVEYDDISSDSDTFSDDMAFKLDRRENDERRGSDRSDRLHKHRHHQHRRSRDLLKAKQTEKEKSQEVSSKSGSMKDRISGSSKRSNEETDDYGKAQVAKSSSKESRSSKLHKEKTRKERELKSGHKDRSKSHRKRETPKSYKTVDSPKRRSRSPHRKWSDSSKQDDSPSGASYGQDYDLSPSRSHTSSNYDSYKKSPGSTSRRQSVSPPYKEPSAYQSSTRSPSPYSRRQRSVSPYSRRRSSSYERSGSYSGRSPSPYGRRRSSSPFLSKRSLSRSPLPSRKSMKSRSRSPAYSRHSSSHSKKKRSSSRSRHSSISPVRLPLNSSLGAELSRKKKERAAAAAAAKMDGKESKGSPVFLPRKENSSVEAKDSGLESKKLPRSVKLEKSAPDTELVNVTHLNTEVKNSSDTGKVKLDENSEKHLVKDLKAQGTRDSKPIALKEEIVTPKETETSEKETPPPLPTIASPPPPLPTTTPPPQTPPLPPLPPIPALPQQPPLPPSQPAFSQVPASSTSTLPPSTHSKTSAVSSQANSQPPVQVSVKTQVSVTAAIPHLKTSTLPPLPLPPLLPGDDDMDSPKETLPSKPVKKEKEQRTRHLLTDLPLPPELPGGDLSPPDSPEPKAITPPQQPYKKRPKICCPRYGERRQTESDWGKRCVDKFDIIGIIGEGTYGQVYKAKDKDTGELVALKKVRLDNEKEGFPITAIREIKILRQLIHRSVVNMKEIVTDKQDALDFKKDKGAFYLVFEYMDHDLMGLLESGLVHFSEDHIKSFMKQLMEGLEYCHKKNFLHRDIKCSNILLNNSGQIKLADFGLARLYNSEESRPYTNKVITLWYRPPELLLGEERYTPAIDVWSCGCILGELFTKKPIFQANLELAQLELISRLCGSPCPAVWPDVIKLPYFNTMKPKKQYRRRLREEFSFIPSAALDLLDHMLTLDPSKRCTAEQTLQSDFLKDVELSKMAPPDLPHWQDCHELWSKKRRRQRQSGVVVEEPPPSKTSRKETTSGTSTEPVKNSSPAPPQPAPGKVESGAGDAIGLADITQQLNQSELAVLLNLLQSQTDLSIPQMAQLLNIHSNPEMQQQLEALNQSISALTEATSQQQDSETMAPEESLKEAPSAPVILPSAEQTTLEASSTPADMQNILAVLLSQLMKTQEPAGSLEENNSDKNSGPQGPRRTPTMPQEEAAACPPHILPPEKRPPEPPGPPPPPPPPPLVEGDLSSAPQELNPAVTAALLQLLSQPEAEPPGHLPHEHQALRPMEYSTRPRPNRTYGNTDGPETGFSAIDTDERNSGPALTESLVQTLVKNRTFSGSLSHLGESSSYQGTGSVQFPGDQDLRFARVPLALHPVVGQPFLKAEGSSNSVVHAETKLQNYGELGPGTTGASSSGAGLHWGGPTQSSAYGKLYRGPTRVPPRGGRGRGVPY
Sequence of CDK12/CycK (O75909 whole entry partner): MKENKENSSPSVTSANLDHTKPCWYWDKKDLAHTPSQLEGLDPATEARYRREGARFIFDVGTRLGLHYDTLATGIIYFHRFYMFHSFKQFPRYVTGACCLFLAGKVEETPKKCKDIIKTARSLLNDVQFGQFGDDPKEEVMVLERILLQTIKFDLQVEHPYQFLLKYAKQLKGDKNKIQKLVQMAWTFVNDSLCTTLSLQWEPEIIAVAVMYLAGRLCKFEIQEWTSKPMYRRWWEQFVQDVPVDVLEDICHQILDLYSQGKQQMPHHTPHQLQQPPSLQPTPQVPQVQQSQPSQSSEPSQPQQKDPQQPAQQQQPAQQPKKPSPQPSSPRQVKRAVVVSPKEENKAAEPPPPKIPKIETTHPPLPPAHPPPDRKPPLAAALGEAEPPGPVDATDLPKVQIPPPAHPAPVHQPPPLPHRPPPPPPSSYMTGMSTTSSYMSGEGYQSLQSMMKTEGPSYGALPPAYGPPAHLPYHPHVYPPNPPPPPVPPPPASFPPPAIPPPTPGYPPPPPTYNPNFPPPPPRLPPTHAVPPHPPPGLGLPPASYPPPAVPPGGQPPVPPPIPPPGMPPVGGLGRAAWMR

Row | Compound | IC50 (CDK12/CycK) [nM] | IC50 (DM1 fibroblasts) [nM]
1 | CC#CC(=O)N1CCC[C@H]1C(=O)NCCc1cc2c(-c3cnn4ncccc34)ccnc2[nH]1 [Example 83, (S)-1-(But-2-ynoyl)-N-(2-(4-(pyrazolo[1,5-b]pyridazin-3-yl)-1H-pyrrolo[2,3-b]pyridin-2-yl)ethyl)pyrrolidine-2-carboxamide] | 100 to 1000 | 1000 to 10000
2 | CN(C)C/C=C/C(=O)N1CCC[C@H]1C(=O)NCCc1cc2c(-c3cnn4ncccc34)ccnc2[nH]1 [Example 84, (S,E)-1-(4-(Dimethylamino)but-2-enoyl)-N-(2-(4-(pyrazolo[1,5-b]pyridazin-3-yl)-1H-pyrrolo[2,3-b]pyridin-2-yl)ethyl)pyrrolidine-2-carboxamide] | 1000 to 30000 | 10000 to 100000
3 | C=CC(=O)N1CCC[C@H]1C(=O)NCCc1cc2c(-c3cnn(C)c3)ccnc2[nH]1 [Example 94, (S)-1-Acryloyl-N-(2-(4-(1-methyl-1H-pyrazol-4-yl)-1H-pyrrolo[2,3-b]pyridin-2-yl)ethyl)pyrrolidine-2-carboxamide] | 100 to 1000 | 10000 to 100000
4 | C=CC(=O)Nc1cccc(C(=O)N2CCN(Cc3cc4c(-c5cnn6ncccc56)ccnc4[nH]3)CC2)c1 [Example 111, N-(3-(4-((4-(Pyrazolo[1,5-b]pyridazin-3-yl)-1H-pyrrolo[2,3-b]pyridin-2-yl)methyl)piperazine-1-carbonyl)phenyl)acrylamide] | 100 to 1000 | 1000 to 10000
5 | C=CC(=O)Nc1ccc(C(=O)N2CCN(Cc3cc4c(-c5cnn6ncccc56)ccnc4[nH]3)CC2)cc1 [Example 112, N-(4-(4-((4-(Pyrazolo[1,5-b]pyridazin-3-yl)-1H-pyrrolo[2,3-b]pyridin-2-yl)methyl)piperazine-1-carbonyl)phenyl)acrylamide] | 100 to 1000 | 1000 to 10000
6 | C=CC(=O)N1CCC[C@H]1C(=O)N1CCN(Cc2cc3c(-c4cnn5ncccc45)ccnc3[nH]2)CC1 [Example 113, (S)-1-(2-(4-((4-(Pyrazolo[1,5-b]pyridazin-3-yl)-1H-pyrrolo[2,3-b]pyridin-2-yl)methyl)piperazine-1-carbonyl)pyrrolidin-1-yl)prop-2-en-1-one] | 1000 to 30000 | 10000 to 100000
7 | O=C([C@H]1CCCN1C(=O)CCl)N1CCC(c2cc3c(-c4cnn5ncccc45)ccnc3[nH]2)C1 (stereo partly drawn) [Example 156, 2-Chloro-1-((2R)-2-(3-(4-(pyrazolo[1,5-b]pyridazin-3-yl)-1H-pyrrolo[2,3-b]pyridin-2-yl)pyrrolidine-1-carbonyl)pyrrolidin-1-yl)ethan-1-one] | < 100 | < 1000
8 | O=C(CCl)Nc1cccc(C(=O)N2CC[C@@H](c3cc4c(-c5cnn6ncccc56)ccnc4[nH]3)C2)c1 [Example 159, (R)-2-Chloro-N-(3-(3-(4-(pyrazolo[1,5-b]pyridazin-3-yl)-1H-pyrrolo[2,3-b]pyridin-2-yl)pyrrolidine-1-carbonyl)phenyl)acetamide] | < 100 | < 1000
9 | O=C(CCl)Nc1cccc(C(=O)N2CC[C@H](c3cc4c(-c5cnn6ncccc56)ccnc4[nH]3)C2)c1 [Example 160, (S)-2-Chloro-N-(3-(3-(4-(pyrazolo[1,5-b]pyridazin-3-yl)-1H-pyrrolo[2,3-b]pyridin-2-yl)pyrrolidine-1-carbonyl)phenyl)acetamide] | < 100 | < 1000
10 | C=CC(=O)N1CCC[C@H]1C(=O)N1CC[C@@H](c2cc3c(-c4cnn5ncccc45)ccnc3[nH]2)C1 [Example 161, 1-((S)-2-((R)-3-(4-(Pyrazolo[1,5-b]pyridazin-3-yl)-1H-pyrrolo[2,3-b]pyridin-2-yl)pyrrolidine-1-carbonyl)pyrrolidin-1-yl)prop-2-en-1-one] | 100 to 1000 | < 1000
11 | CN(C)C/C=C/C(=O)Nc1cccc(C(=O)NCCc2cc3c(-c4cnn5ncccc45)ccnc3[nH]2)c1 [Example 200, (E)-3-(4-(Dimethylamino)but-2-enamido)-N-(2-(4-(pyrazolo[1,5-b]pyridazin-3-yl)-1H-pyrrolo[2,3-b]pyridin-2-yl)ethyl)benzamide] | 100 to 1000 | 10000 to 100000
12 | C=CC(=O)Nc1cc(C(=O)N2CCC(c3cc4c(-c5cnn6ncccc56)ccnc4[nH]3)C2)ccc1OC (stereo not shown) [Example 204, N-(2-Methoxy-5-(3-(4-(pyrazolo[1,5-b]pyridazin-3-yl)-1H-pyrrolo[2,3-b]pyridin-2-yl)pyrrolidine-1-carbonyl)phenyl)acrylamide] | < 100 | < 1000
13 | C=CC(=O)N1C[C@H](F)C[C@H]1C(=O)NCCc1cc2c(-c3cnn4ncccc34)ccnc2[nH]1 [Example 207, (2S,4R)-1-Acryloyl-4-fluoro-N-(2-(4-(pyrazolo[1,5-b]pyridazin-3-yl)-1H-pyrrolo[2,3-b]pyridin-2-yl)ethyl)pyrrolidine-2-carboxamide] | < 100 | < 1000
14 | C=CC(=O)N1CC2(CC2)C[C@H]1C(=O)NCCc1cc2c(-c3cnn4ncccc34)ccnc2[nH]1 [Example 208, (S)-5-Acryloyl-N-(2-(4-(pyrazolo[1,5-b]pyridazin-3-yl)-1H-pyrrolo[2,3-b]pyridin-2-yl)ethyl)-5-azaspiro[2.4]heptane-6-carboxamide] | < 100 | 1000 to 10000
15 | N#CN1CCC[C@H](C(=O)NCCc2cc3c(-c4cnn5ncccc45)ccnc3[nH]2)C1 [Example 210, (S)-1-cyano-N-(2-(4-(pyrazolo[1,5-b]pyridazin-3-yl)-1H-pyrrolo[2,3-b]pyridin-2-yl)ethyl)piperidine-3-carboxamide] | 100 to 1000 | 1000 to 10000
16 | C=CC(=O)NC(Cc1ccccc1)C(=O)NCCc1cc2c(-c3cnn4ncccc34)ccnc2[nH]1 (stereo not shown) [Example 211, N-(1-Oxo-3-phenyl-1-((2-(4-(pyrazolo[1,5-b]pyridazin-3-yl)-1H-pyrrolo[2,3-b]pyridin-2-yl)ethyl)amino)propan-2-yl)acrylamide] | 100 to 1000 | 1000 to 10000
17 | C=CC(=O)NC(C)C(=O)NCCc1cc2c(-c3cnn4ncccc34)ccnc2[nH]1 (stereo not shown) [Example 212, N-(1-oxo-1-((2-(4-(pyrazolo[1,5-b]pyridazin-3-yl)-1H-pyrrolo[2,3-b]pyridin-2-yl)ethyl)amino)propan-2-yl)acrylamide] | 100 to 1000 | 1000 to 10000

More lines, main results first:

Row | IC50 (CDK12/CycK) [nM] | Compound | IC50 (DM1 fibroblasts) [nM]
18 | < 100 | C=CC(=O)N1CCCC[C@H]1C(=O)NCCc1cc2c(-c3cnn4ncccc34)ccnc2[nH]1 [Example 92, (S)-1-Acryloyl-N-(2-(4-(pyrazolo[1,5-b]pyridazin-3-yl)-1H-pyrrolo[2,3-b]pyridin-2-yl)ethyl)piperidine-2-carboxamide] | 1000 to 10000
19 | < 100 | C=CC(=O)Nc1ccc(C(=O)N2CCC(c3cc4c(-c5cnn6ncccc56)ccnc4[nH]3)C2)cc1 (stereo not shown) [Example 126, N-(4-(3-(4-(Pyrazolo[1,5-b]pyridazin-3-yl)-1H-pyrrolo[2,3-b]pyridin-2-yl)pyrrolidine-1-carbonyl)phenyl)acrylamide] | < 1000
20 | < 100 | CN(C)C/C=C/C(=O)Nc1ccc(C(=O)N2CCC(c3cc4c(-c5cnn6ncccc56)ccnc4[nH]3)C2)cc1 (stereo not shown) [Example 127, (E)-4-(Dimethylamino)-N-(4-(3-(4-(pyrazolo[1,5-b]pyridazin-3-yl)-1H-pyrrolo[2,3-b]pyridin-2-yl)pyrrolidine-1-carbonyl)phenyl)but-2-enamide Formate Salt] | < 1000
21 | < 100 | C=CC(=O)Nc1ccc(C(=O)N2CCC(c3cc4c(-c5c[nH]c6ccccc56)ccnc4[nH]3)C2)cc1 (stereo not shown) [Example 129, N-(4-(3-(4-(1H-Indol-3-yl)-1H-pyrrolo[2,3-b]pyridin-2-yl)pyrrolidine-1-carbonyl)phenyl)acrylamide] | 1000 to 10000
22 | < 100 | C=CC(=O)Nc1cccc(C(=O)N2CCC(c3cc4c(-c5cnn6ncccc56)ccnc4[nH]3)C2)c1 (stereo not shown) [Example 141, N-(3-(3-(4-(Pyrazolo[1,5-b]pyridazin-3-yl)-1H-pyrrolo[2,3-b]pyridin-2-yl)pyrrolidine-1-carbonyl)phenyl)acrylamide] | < 1000
23 | < 100 | O=C(CCl)Nc1ccc(C(=O)N2CCC(c3cc4c(-c5cnn6ncccc56)ccnc4[nH]3)C2)cc1 (stereo not shown) [Example 144, 2-Chloro-N-(4-(3-(4-(pyrazolo[1,5-b]pyridazin-3-yl)-1H-pyrrolo[2,3-b]pyridin-2-yl)pyrrolidine-1-carbonyl)phenyl)acetamide] | < 1000
24 | < 100 | O=C(CCl)Nc1cccc(C(=O)N2CCC(c3cc4c(-c5cnn6ncccc56)ccnc4[nH]3)C2)c1 (stereo not shown) [Example 145, 2-Chloro-N-(3-(3-(4-(pyrazolo[1,5-b]pyridazin-3-yl)-1H-pyrrolo[2,3-b]pyridin-2-yl)pyrrolidine-1-carbonyl)phenyl)acetamide] | < 1000
25 | < 100 | C#CC(=O)Nc1cccc(C(=O)N2CCC(c3cc4c(-c5cnn6ncccc56)ccnc4[nH]3)C2)c1 (stereo not shown) [Example 146, N-(3-(3-(4-(Pyrazolo[1,5-b]pyridazin-3-yl)-1H-pyrrolo[2,3-b]pyridin-2-yl)pyrrolidine-1-carbonyl)phenyl)propiolamide] | < 1000
26 | < 100 | C=CC(=O)Nc1cccc(C(=O)N2CC[C@H](c3cc4c(-c5cnn6ncccc56)ccnc4[nH]3)C2)c1 [Example 151, (S)—N-(3-(3-(4-(Pyrazolo[1,5-b]pyridazin-3-yl)-1H-pyrrolo[2,3-b]pyridin-2-yl)pyrrolidine-1-carbonyl)phenyl)acrylamide] | < 1000

— patent publication US11407767B2, “Heterocyclyl substituted pyrrolopyridines that are inhibitors of the CDK12 kinase” (The University of Nottingham, priority 2017, dated 2022)
